# Source: patent USRE37950E1, “Biogradable in-situ forming implants and methods of producing the same” (priority 1990, dated 2002)
# What was measured:
# [1] = Release of drug from polymer/NMP formulation injected into dialysis tube, placed in pH 7 Sorenson's buffer receiving fluid at 37° C., UV at 237 nm; assay type: physicochemical; conditions: for cumulative fraction of drug released: Example 1: 2% by weight SaCl dispersion in DL-PLA oligomer/NMP 68:32
# [2] = Concentration of SaCl in crevicular fluid from periodontal pocket of a greyhound dog (Periostrips, Periotron, liquid chromatograph); conditions: other: inserted into the periodontal pocket
smiles,measurement,setting,value
"CCOC1c2c(ccc3c2OCO3)-c2ccc3cc4c(cc3c2N1C)OCO4 (stereo not shown) [SaEt, Ethoxydihydrosanguinarine]",drug released,"[1]; Example 2: SaEt dissolved in DL-PLA oligomer/NMP solution of Example 1, after 2 days",~52%
same,drug released,"[1]; Example 2: SaEt dissolved in DL-PLA oligomer/NMP solution of Example 1, after 5 days",~60%
same,drug released,"[1]; Example 2: SaEt dissolved in DL-PLA oligomer/NMP solution of Example 1, after 9 days",~70%
same,drug released,"[1]; Example 2: SaEt dissolved in DL-PLA oligomer/NMP solution of Example 1, after 14 days",~80%
same,drug released,"[1]; Example 2: SaEt dissolved in DL-PLA oligomer/NMP solution of Example 1, after the first day",approximately 45%
same,drug released,"[1]; Example 4: 1.5% by weight SaEt solution in 40% by weight DL-PLA (MW 2,000) in NMP, after 2 days",~14%
same,drug released,"[1]; Example 4: 1.5% by weight SaEt solution in 40% by weight DL-PLA (MW 2,000) in NMP, after 5 days",~20%
same,drug released,"[1]; Example 4: 1.5% by weight SaEt solution in 40% by weight DL-PLA (MW 2,000) in NMP, after 9 days",~23%
same,drug released,"[1]; Example 4: 1.5% by weight SaEt solution in 40% by weight DL-PLA (MW 2,000) in NMP, after 14 days",~28%
same,drug released,"[1]; Example 4: 1.5% by weight SaEt solution in 40% by weight DL-PLA (MW 2,000) in NMP, after the first day",approximately 8%
same,release rate,[1]; Example 7: 2% by weight SaEt solution in 70% by weight 50:50 DL-PLG in NMP,identical to that for SaCl described in Example 6
"C[n+]1cc2c3c(ccc2c2ccc4cc5c(cc4c21)OCO5)OCO3 [SaCl, Sanguinarine chloride]",cumulative fraction of drug released,[1]; after 2 days,~72%
same,cumulative fraction of drug released,[1]; after 5 days,~85%
same,cumulative fraction of drug released,[1]; after 9 days,~90%
same,cumulative fraction of drug released,[1]; after 14 days,~97%
same,cumulative fraction of drug released,[1]; first day,Approximately 60%
same,drug released,"[1]; Example 3: 1.5% by weight SaCl dispersion in 40% by weight poly(DL-lactide) (MW 2,000) in NMP, after 2 days",~40%
same,drug released,"[1]; Example 3: 1.5% by weight SaCl dispersion in 40% by weight poly(DL-lactide) (MW 2,000) in NMP, after 5 days",~45%
same,drug released,"[1]; Example 3: 1.5% by weight SaCl dispersion in 40% by weight poly(DL-lactide) (MW 2,000) in NMP, after 15 days",~50%
same,drug released,"[1]; Example 3: 1.5% by weight SaCl dispersion in 40% by weight poly(DL-lactide) (MW 2,000) in NMP, after the first day",approximately 32%
same,drug released,"[1]; Example 6: 2% by weight SaCl dispersion in 70% by weight 50:50 DL-PLG (MW 1500) in NMP, after 2 days",approximately 7%
same,drug released,"[1]; Example 6: 2% by weight SaCl dispersion in 70% by weight 50:50 DL-PLG (MW 1500) in NMP, after 5 days",~10%
same,drug released,"[1]; Example 6: 2% by weight SaCl dispersion in 70% by weight 50:50 DL-PLG (MW 1500) in NMP, after 7 days",~12%
same,drug released,"[1]; Example 6: 2% by weight SaCl dispersion in 70% by weight 50:50 DL-PLG (MW 1500) in NMP, after 14 days",~16%
same,concentration at 3 days,[2],63.2 µg/mL
same,concentration at 7 days,[2],80.2 µg/mL
same,concentration at 10 days,[2],67.8 µg/mL
same,concentration at 14 days,[2],70.5 µg/mL
